Results from ChEMBL document CHEMBL5606458, “ASAP - ZIKV NS2B-NS3 protease fluorescence single point” (2024).

Biological target: Nonstructural protein 3 (Zika virus) (UniProt A0A024AXB9)
Test: Functional biochemical assay to identify treatments for viral infectious disease that targets Zika NS2B-NS3 protease. Utilizing a direct enzyme activity measurement method, reading the fluorescence intensity is used to characterize the relative potency of inhibitors as % inhibition. Synthetic construct has been made based on Zika virus (strain PRVABC59) by Centre for Medicines Discovery, University of Oxford, and the assay has been performed by Stanford University.The protocol is publicly available: dx.doi.org/10.17504/protocols.io.4r3l29533v1y/v1
Conditions: Concentration 25.0 uM, Number of replicates 1.0

Nonstructural protein 3 (Zika virus), sequence (A0A024AXB9 as listed by the source): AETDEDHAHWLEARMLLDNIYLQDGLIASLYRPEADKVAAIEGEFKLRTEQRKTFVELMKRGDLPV

Structure (SMILES) | inhibition
O=Cc1nc(-c2ccccc2Cl)n2ccccc12 | 48.3%
O=Cc1ccc(N2CCC(C(=O)O)CC2)cc1 | 66%
Cc1cc(NS(=O)(=O)c2ccc(S(=O)(=O)F)cc2)c[nH]c1=O | 60.6%
CC[C@H]1CO[C@H](C)CN1c1ccc(C=O)cn1 | 61.5%
CN(C)c1ccc(C=C(C#N)C(N)=O)cc1 | 50.7%
O=Cc1ccc(N2CCC(C(=O)O)CC2)o1 | 55.4%
O=Cc1ccc(N2CCCCCC2)cc1 | 46.5%
O=Cc1ccc(N2CCCCC2)cc1 | 49%
Cc1c(C=O)c2ccccn2c1C#N | 48.9%
Nc1ccc2ccc(B(O)O)cc2c1 | 81%
Cc1c(C=O)c2ccccn2c1C(=O)c1ccncc1 | 48.3%
Cc1nc(C=O)c2ccccn12 | 45%
